Assay results reported in patent US20120035214A1, “RENIN INHIBITORS” (Merck Canada Inc., priority 2009, published 2012).

Columns and labels:
[1] = target: T1, recombinant renin in human plasma (Homo sapiens, UniProt P00797); experiment: Inhibition of renin in human plasma (QFRET, plasma); type: biochemical; settings: human EDTA plasma with 1 nM recombinant renin added; 37° C., 1 hour
T1 construct: purchased Proteos
T1 sequence (P00797 67-406): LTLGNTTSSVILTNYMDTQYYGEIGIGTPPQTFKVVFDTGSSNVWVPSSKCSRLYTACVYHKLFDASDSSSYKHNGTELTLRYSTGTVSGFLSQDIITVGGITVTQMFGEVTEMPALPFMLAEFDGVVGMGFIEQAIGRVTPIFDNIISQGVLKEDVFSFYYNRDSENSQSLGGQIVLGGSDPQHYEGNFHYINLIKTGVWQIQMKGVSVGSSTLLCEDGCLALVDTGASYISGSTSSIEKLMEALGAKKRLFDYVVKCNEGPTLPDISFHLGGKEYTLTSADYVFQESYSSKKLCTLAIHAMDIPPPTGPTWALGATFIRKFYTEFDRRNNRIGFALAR
Procedure: Inhibition of Renin in Human Plasma
Human EDTA-collected plasma is rapidly thawed in warm water and centrifuged at 2900 g for 15 minutes at 4° C. The supernatant is collected and recombinant renin (Proteos) is added at a final concentration of 1 nM. The plasma is transferred to a Costar black 384 well plate (#3573). Renin inhibitors are added from a 17.5 fold concentrated DMSO solution and pre-incubated at 37° C. for 10 minutes. The internally-quench fluorescent peptide QXL520™-[…](5-FAM) (Anaspec), SEQ ID NO: 2, is diluted in 3M Tris pH 7.2, 200 mM EDTA and added to the plasma. The final concentrations are: 6 μM substrate, 342 mM Tris, 23 mM EDTA. The plate is incubated at 37° C. for 1 hour. The plate is read in a SpectraMax Gemini EM reader set at an excitation wavelength of 490 nm and an emission wavelength of 520 nm at times 0 and 1 hour. Background fluorescence at t=0 is subtracted from the measurement at t=1 hour. Inhibitory activity of the compounds is expressed as IC50.

Human recombinant renin = target: T2, Human recombinant renin (Homo sapiens, UniProt P00797); experiment: Inhibition of human recombinant renin (QFRET, buffer); type: biochemical; settings: buffer: 50 mM MOPS pH 7.4, 100 mM NaCl, 0.002% Tween 20; 37° C., 3 hours
T2 construct: purchased Proteos
T2 sequence (P00797 67-406): T1 sequence (P00797 67-406)
Procedure: Inhibition of Human Recombinant Renin
Human recombinant renin (Proteos) in 50 mM MOPS pH 7.4, 100 mM NaCl, 0.002% Tween 20 at a final concentration of […] is incubated with inhibitors from a 50 fold concentrated DMSO solution and 6 μM of an internally-quenched fluorescent peptide: DNP-[…]D,L-Amp (SEQ ID NO: 1); Paschalidou K. et al., Biochem J., 2004, 382, 1031). The reactions take place in a Costar 384 well black plate (#3573) at 37° C. for 3 hours. Fluorescence is measured at times 0 and 3 hours with a SpectraMax Gemini EM reader set at an excitation wavelength of 328 nm and at an emission wavelength of 388 nm. Background fluorescence at t=0 is subtracted from the measurement at t=3 hours. Inhibitory activity of the compounds is expressed as IC50.

| SMILES | IC50 [1] [nM] | IC50 (Human recombinant renin) [nM] |
| --- | --- | --- |
| CC(=O)NCCc1ccccc1-c1ccc([C@H]2CNCC[C@@H]2c2cccnc2)c(C)c1 (racemic) [Structure 3] | 41 | 9.2 |
| CC(=O)NCc1ccccc1-c1ccc([C@H]2CNCC[C@@H]2c2ccc(F)c(F)c2)cc1 (racemic) [Structure 49] | 9040 | 1710 |
| Cc1cc(-c2ccccc2CCN)ccc1[C@H]1CNCC[C@@H]1c1cc(F)cc(F)c1 (racemic) [Structure 27] | 1040 | 81 |
| COCCCc1ccccc1-c1cc(C)c([C@H]2CNCC[C@@H]2c2ccc(Cl)c(F)c2)cn1 (racemic) [Structure 50] | 230 | 1.5 |
| Cc1cc(-c2ccccc2CCNC(=O)OCc2ccccc2)ccc1[C@H]1CNCC[C@@H]1c1cc(F)cc(F)c1 (racemic) [Structure 25] | 5470 | 18 |
| Cc1cc(-c2ccccc2CCCO)ccc1[C@H]1CNCC[C@@H]1c1cccc2nc[nH]c12 (racemic) [Structure 9] | > 9500 | 998 |
| Fc1ccc([C@@]2(F)CCNC[C@@H]2c2onc(-c3cccc(Cl)c3Cl)c2Br)cc1F [Structure 77] | 7.9 | 0.25 |
| CC(=O)NCCc1cc(C(F)(F)F)ccc1-c1ccc([C@H]2CNCC[C@@H]2c2ccc(F)c(F)c2)c(Cl)c1 (racemic) [Structure 47] | 140 | 0.59 |
| Cc1cc(-c2ccccc2CCNC(=O)C(F)(F)C(F)(F)F)ccc1[C@H]1CNCC[C@@H]1c1cc(F)cc(F)c1 (racemic) [Structure 32] | 75 | 23 |
| Cc1ccc(Cl)c(-c2noc([C@H]3CNCC[C@]3(O)c3ccc(F)c(F)c3)c2Br)c1F [Structure 74] | 430 | 4.9 |
| Cc1cccc(-c2noc([C@H]3CNCC[C@]3(O)c3ccc(F)c(F)c3)c2Br)c1C [Structure 73] | 21 | 0.47 |
| CC(=O)NCCc1ccccc1-c1ccc([C@H]2CNCC[C@]2(O)c2ccc(OC(F)(F)F)c(F)c2)c(C)c1 [Structure 132] | 18 | 0.4 |
| COCCCc1ccccc1-c1ccc([C@H]2CNCC[C@@H]2c2cccc3nc[nH]c23)c(Cl)c1 (racemic) [Structure 10] | 2060 | 3.5 |
| COCCCc1ccccc1-c1ccc([C@H]2CNCC[C@@H]2c2ccc(N)nc2)c(Cl)c1 (racemic) [Structure 52] | 1630 | 150 |
| Cc1cc(-c2ccccc2CCNC(=O)c2ccccc2)ccc1[C@H]1CNCC[C@@H]1c1cc(F)cc(F)c1 (racemic) [Structure 22] | 1170 | 20 |
| Cc1cc(-c2ccccc2CCNC(=O)C(C)C)ccc1[C@H]1CNCC[C@@H]1c1cc(F)cc(F)c1 (racemic) [Structure 21] | 1150 | 14 |
| CC(=O)NCCc1ccc(C(F)(F)F)cc1-c1ccc([C@H]2CNCC[C@@H]2c2ccc(F)c(F)c2)c(Cl)c1 (racemic) [Structure 46] | 280 | 0.78 |
| CC(=O)NCCc1ccccc1-c1ccc([C@@H]2CNCC[C@H]2c2ccn(C)c(=O)c2)c(Cl)c1 [Structure 60] | 1350 | 710 |
| CC(O)c1c([C@H]2CNCC[C@]2(O)c2ccc(F)c(F)c2)noc1-c1c(Cl)cccc1Cl (some centres unmarked) [Structure 78] | 24 | 1.8 |
| CCOC(=O)NCCc1ccccc1-c1ccc([C@H]2CNCC[C@@H]2c2ccn(C)c(=O)c2)c(Cl)c1 (racemic) [Structure 63] | 24 | 16 |
| Cc1cc(-c2ccccc2OCc2ccccc2)ccc1[C@H]1CNCC[C@@H]1c1cc(F)cc(F)c1 (racemic) [Structure 37] | 12400 | 87 |
| O[C@]1(c2ccc(F)c(F)c2)CCNC[C@@H]1c1cn(-c2ccc(F)cc2Br)nn1 [Structure 91] | 9470 | 2900 |
| CC(=O)NCCc1ccccc1-c1ccc([C@H]2CNCC[C@@H]2c2cc(F)cc(F)c2)c(C)c1 [Structure 16] | 16 | 0.59 |
| CC(=O)NCCc1ccccc1-c1ccc([C@H]2CNCC[C@@H]2c2ccn(C)c(=O)c2)c(Cl)c1 (racemic) [Structure 58] | 7.1 | 3.6 |
| CC(=O)NCCc1ccccc1-c1ccc([C@H]2CNCC[C@@H]2c2cccnc2N)c(Cl)c1 (racemic) [Structure 45] | 4580 | 710 |
| COCCCc1ccccc1-c1ccc([C@H]2CNCC[C@@H]2c2ccccc2)c(C)c1 (racemic) [Structure 1] | > 10000 | 620 |
| Cc1cc(-c2ccccc2CCNC(=O)CO)ccc1[C@H]1CNCC[C@@H]1c1cc(F)cc(F)c1 (racemic) [Structure 26] | 30 | 1.5 |
| CC(=O)NCCc1ccccc1-c1ccc([C@@H]2CNCC[C@H]2c2cc(F)cc(F)c2)c(C)c1 [Structure 17] | 11600 | 530 |
| Cc1cc(-c2ccccc2COc2ccccc2)ccc1[C@H]1CNCC[C@@H]1c1cc(F)cc(F)c1 (racemic) [Structure 35] | 1890 | 3.8 |

The next compounds have a lower IC50 [1] than those just listed; values first:

| IC50 [1] [nM] | IC50 (Human recombinant renin) [nM] | SMILES |
| --- | --- | --- |
| 0.62 | 0.14 | C[C@H]1C[C@H](c2ccc(F)c(F)c2)[C@@H](c2nnc(-c3cccc(Cl)c3Cl)n2C2CC2)CN1 [Structure 93] |
| 4.4 | 0.63 | CC(=O)NCCc1ccccc1-c1onc([C@H]2CNCC[C@]2(OCc2c[nH]nn2)c2ccc(F)c(F)c2)c1Br [Structure 90] |
| 1.9 | 0.7 | CC(=O)NCCc1ccccc1-c1onc([C@H]2CNCC[C@]2(O)c2ccc(F)c(F)c2)c1Cl [Structure 104] |
| 0.6 | 0.23 | CC(=O)NCCc1ccccc1-c1onc([C@H]2CNCC[C@]2(O)c2ccc(F)c(F)c2)c1Br [Structure 80] |
| 1.2 | < 0.05 | CC(=O)NCCc1ccccc1-c1onc([C@H]2CNCC[C@@H]2c2ccc(OCCOc3c(Cl)cc(C)cc3Cl)cc2)c1Br [Structure 111] |
| 0.58 | 0.19 | CCOCC(F)(F)COCc1ccc([C@@]2(O)CCNC[C@@H]2c2noc(-c3ccccc3CCNC(C)=O)c2Br)cc1 [Structure 114] |
| 6.6 | 0.1 | O=C(NCCc1ccccc1-c1ccc([C@H]2CNCC[C@@H]2c2ccc(F)c(F)c2)c(Cl)c1)C(F)(F)F (racemic) [Structure 41] |
| 4.9 | 4.2 | COC(=O)NCCc1ccccc1-c1ccc([C@H]2CNCC[C@@H]2c2ccn(C)c(=O)c2)c(Cl)c1 (racemic) [Structure 62] |
| 3.8 | 0.26 | CC(=O)NCCc1ccccc1-c1ccc([C@H]2CNCC[C@]2(O)c2ccc(COCCOC(C)C)cc2)c(C)c1 (racemic) [Structure 56] |
| 1.7 | 0.44 | CC(=O)NCCc1ccccc1-c1onc([C@H]2CNCC[C@]2(O)c2ccc(COCC(F)(F)COC(C)C)cc2)c1Br [Structure 112] |
| 0.62 | 0.16 | CC(=O)NCCc1c(F)cccc1-c1onc([C@H]2CNCC[C@]2(O)c2ccc(F)c(F)c2)c1Br [Structure 87] |
| 0.52 | 0.08 | COC[C@H](C)COCc1ccc([C@@]2(O)CCNC[C@@H]2c2ccc(-c3ccccc3CCNC(C)=O)cc2Cl)cc1 [Structure 126] |
| 3.6 | 0.15 | COC[C@H](C)COCc1ccc([C@@]2(O)CCNC[C@@H]2c2cnc(-c3ccccc3CCNC(C)=O)cc2C)cc1 [Structure 119] |
| 4.5 | 4.3 | CC(=O)NCCc1ccccc1-c1onc([C@H]2CNCC[C@]2(O)c2ccc(F)c(F)c2)c1C(C)O (some centres unmarked) [Structure 85] |
| 1.6 | 0.36 | CC(=O)NCCc1ccccc1-c1noc([C@H]2CNCC[C@]2(O)c2ccc(F)c(F)c2)c1Br [Structure 76] |
| 1.4 | 0.37 | CC(=O)NCCc1ccccc1-c1onc([C@H]2CNCC[C@]2(OCC(O)CO)c2ccc(F)c(F)c2)c1Br (some centres unmarked) [Structure 117] |
| 2.8 | 0.7 | CC(=O)NCCc1ccccc1-c1onc([C@H]2CN[C@@H](C)C[C@@H]2c2ccc(F)c(F)c2)c1Br [Structure 96] |
